Test results: patent US6875743B1, “Cell adhesion inhibitors” (Biogen, Inc., priority 1996, dated 2005)
Numbered stars: 1 amine (or outer) side, 2 acyl side, 3 side chain; on linkers, the order of the positions; unused ones are H or OH. Square brackets hold non-standard residues; d marks the D form. Peptide text beside a SMILES is read from it. * marks the point of attachment. Quinaldoyl = O=C(c1ccc2ccccc2n1)*; X1 = O=C(Cc1ccc(N[*:1])cc1)[*:2]; NH(2-Me-phenyl) = Cc1ccccc1N*; Tic = O=C(O)[CH]1Cc2ccccc2CN1; PhAc = O=C(Cc1ccccc1)*; Boc = CC(C)(C)OC(=O)*; CO = O=C([*:1])[*:2]

Target: T1, VLA4 (Homo sapiens, UniProt P05556+P13612)
T1 construct: endogenous in cells; host or cells: Ramos cells
T1 sequence (P13612 34-1032): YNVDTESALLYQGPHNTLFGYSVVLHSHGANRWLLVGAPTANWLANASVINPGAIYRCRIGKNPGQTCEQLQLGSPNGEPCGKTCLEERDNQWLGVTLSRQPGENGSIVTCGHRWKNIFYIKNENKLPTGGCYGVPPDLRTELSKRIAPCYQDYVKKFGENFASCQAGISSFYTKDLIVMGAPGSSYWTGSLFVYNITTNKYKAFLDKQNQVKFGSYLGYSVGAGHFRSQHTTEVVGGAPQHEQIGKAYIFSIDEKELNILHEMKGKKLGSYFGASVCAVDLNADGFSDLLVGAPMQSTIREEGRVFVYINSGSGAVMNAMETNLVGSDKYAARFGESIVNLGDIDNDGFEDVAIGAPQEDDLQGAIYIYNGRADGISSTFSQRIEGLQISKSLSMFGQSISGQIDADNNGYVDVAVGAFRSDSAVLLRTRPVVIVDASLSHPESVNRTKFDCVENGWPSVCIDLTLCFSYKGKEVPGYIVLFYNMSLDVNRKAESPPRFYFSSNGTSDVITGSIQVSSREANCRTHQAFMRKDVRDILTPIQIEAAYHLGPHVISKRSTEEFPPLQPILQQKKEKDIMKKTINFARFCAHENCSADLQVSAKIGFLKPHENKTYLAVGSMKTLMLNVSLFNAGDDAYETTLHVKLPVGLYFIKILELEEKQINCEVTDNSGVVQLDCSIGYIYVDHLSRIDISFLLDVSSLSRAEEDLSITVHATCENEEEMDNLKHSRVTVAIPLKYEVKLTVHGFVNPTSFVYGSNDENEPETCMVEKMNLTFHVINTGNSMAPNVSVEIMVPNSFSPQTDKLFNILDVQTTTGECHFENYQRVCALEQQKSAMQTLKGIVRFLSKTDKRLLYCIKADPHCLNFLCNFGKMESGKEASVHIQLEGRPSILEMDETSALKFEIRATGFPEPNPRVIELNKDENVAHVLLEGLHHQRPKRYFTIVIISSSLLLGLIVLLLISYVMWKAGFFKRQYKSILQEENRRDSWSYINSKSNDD
T1 sequence (P05556 21-798): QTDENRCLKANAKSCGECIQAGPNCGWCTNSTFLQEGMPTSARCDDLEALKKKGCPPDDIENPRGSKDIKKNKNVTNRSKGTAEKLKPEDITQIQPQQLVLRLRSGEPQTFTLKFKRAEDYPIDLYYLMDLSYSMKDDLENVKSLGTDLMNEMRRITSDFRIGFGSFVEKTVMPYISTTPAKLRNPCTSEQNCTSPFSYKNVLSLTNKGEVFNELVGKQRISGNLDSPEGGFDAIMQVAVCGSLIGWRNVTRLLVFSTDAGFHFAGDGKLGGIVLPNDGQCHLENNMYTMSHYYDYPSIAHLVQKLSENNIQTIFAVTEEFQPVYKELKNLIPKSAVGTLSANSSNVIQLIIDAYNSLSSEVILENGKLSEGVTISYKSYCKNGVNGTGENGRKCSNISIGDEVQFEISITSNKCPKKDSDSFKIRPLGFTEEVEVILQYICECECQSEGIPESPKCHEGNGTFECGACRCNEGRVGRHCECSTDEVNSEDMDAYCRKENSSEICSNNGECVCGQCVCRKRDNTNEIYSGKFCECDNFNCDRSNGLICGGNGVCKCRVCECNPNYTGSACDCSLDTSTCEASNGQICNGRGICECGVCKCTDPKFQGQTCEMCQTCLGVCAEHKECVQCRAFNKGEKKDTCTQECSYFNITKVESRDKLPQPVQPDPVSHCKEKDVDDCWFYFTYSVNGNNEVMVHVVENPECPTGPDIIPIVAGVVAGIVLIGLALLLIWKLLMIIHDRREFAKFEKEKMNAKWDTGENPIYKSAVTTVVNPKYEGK
Experiment: Inhibition of VLA4-dependent adhesion to BSA-CS1
Format: cell-based
Settings: binding of BCECF-labelled Ramos cells to BSA-CS1 coated wells, 2 mM MnCl2; read-out: IC50
Excerpt: For example, the cell adhesion inhibitory activity of these compounds may be measured by determining the concentration of inhibitor required to block the binding of VLA-4-expressing cells to fibronectin- or CS1-coated plates. In this assay microtiter wells are coated with either fibronectin (containing the CS-1 sequence) or CS-1. If CS-1 is used, it must be conjugated to a carrier protein, such as bovine serum albumin, in order to bind to the wells. Once the wells are coated, varying concentrations of the test compound are then added together with appropriately labelled, VLA-4-expressing cells. Alternatively, the test compound may be added first and allowed to incubate with the coated wells prior to the addition of the cells. The cells are allowed to incubate in the wells for at least 30 minutes. Following incubation, the wells are emptied and washed. Inhibition of binding is measured by quantitating the fluorescence or radioactivity bound to the plate for each of the various concentrations of test compound, as well as for controls containing no test compound.
VLA-4-expressing cells that may be utilized in this assay include Ramos cells, Jurkat cells, A375 melanoma cells, as well as human peripheral blood lymophocytes (PBLs). The cells used in this assay may be fluorescently or radioactively labelled.
This assay was used to assess the potency of VLA4-directed inhibitory compounds of this invention.
We dissolved BSA-SMCC (Pierce Chemical, Rockford, Ill.; Catalog #77115) in H2O at a concentration of 10 mg/mL. [SEQ ID NO:4]: […](“Cys-Tyr-CS1 peptide”), which we synthesized by conventional solid phase chemistry and purified by HPLC, was dissolved in 10 mM HEPES pH 5, 50 mM NaCl and 0.1 mM EDTA also at a concentration of 10 mg/mL. We then mixed 500 μL of BSA-SMCC, 250 μL of Cys-Tyr-CS1 peptide and 75 μL of 1 mM HEPES pH 7.5 and allowed the conjugation reaction to proceed for 30 minutes. We stopped the reaction by adding 1 μL of beta-mercaptoethanol. Samples were analyzed for cross-linking by SDS-PAGE.
We coated the wells of a Linbro titertek polystyrene 96-well flat bottom plate (Flow Laboratories, Maclean, Va.; catalog #76-231-05) with 100 μL of the above-described BSA-CS1 solution diluted to 1 μg/mL in 0.05 M NaHCO3 (15 mM NaHCO3, 35 mM Na2CO3) pH 9.2. Some wells were not coated with CS1 in order to assess non-specific cell binding (NSB). The plate was then incubated overnight at 4° C.
Following this incubation, the contents of the wells were removed by inverting and blotting the plate. All of the wells were then blocked with 100 μL of 1% BSA in PBS, 0.02% NaN3, for a minimum of one hour at room temperature.
Ramos cells are grown, maintained and labelled in RPMI 1640 culture medium containing 1% BSA. Just prior to running the assay, we added 2′,7′-bis-(2-carboxyethyl)-5 (and -6) carboxyfluorescein acetoxymethyl ester (“BCECF-AM”; Molecular Probes Inc., Eugene, Oreg.; catalog #B-1150) to a final concentration of 2 μM to a culture of Ramos cells (4×10^6 cells/mL). We incubated the cells for 20 minutes at 37° C.
Following labelling, the cells were washed twice in assay buffer (24 mM TRIS, 137 mM NaCl, 2.7 mM KCl, pH 7.4, containing 0.1% BSA and 2 mM glucose) to remove any cations originating from the culture medium. The cells were then resuspended in assay buffer to 4×10^6 cells/mL and 2 mM MnCl2 was added to upregulate VLA4 on the surface of the cells.
Immediately prior to running the assay, we removed the BSA blocking solution from the 96-well plates and washed the wells with 100 μL of assay buffer. We then added to each well 25 μL of test cell adhesion inhibitory compound at 2× the final concentration and 25 μL of the labelled Ramos cells. […] Each concentration of compound was tested in triplicate. The compound and cells are allowed to incubate for 30 minutes at room temperature.

Row | SMILES | IC50 [nM]
1 | Cc1ccccc1NC(=O)Nc1ccc(CC(=O)N[C@@H](CO)C(=O)N[C@@H](CC(=O)O)C(=O)N[C@H](CC(N)=O)C(N)=O)cc1 [Compound 282] | < 50
2 | CC(C)CC(NC(=O)C1Cc2ccccc2CN1)C(=O)NC(CC(=O)O)C(=O)O (stereo not drawn) [Compound 23] (H-[Tic]-Leu-Asp-OH; configuration not given here) | > 10000
3 | CC(C)C(NC(=O)C(CC(=O)O)NC(=O)C(CC1CCCCC1)NC(=O)c1cc2ccccc2cn1)C(=O)O (centres unmarked) [Compound 85] | > 10000
4 | CSCC[C@H](NC(=O)[C@H](CC(=O)O)NC(=O)[C@H](CO)NC(=O)Cc1ccc(NC(=O)Nc2ccccc2C)cc1)C(N)=O [Compound 281] | < 50
5 | CC(C)CC(NC(=O)CCCCc1ccccc1)C(=O)NC(CC(=O)O)C(=O)NCC1CCCCC1 (centres unmarked) [Compound 26] | > 10000
6 | CC[C@H](C)[C@H](NC(=O)[C@@H](CC(=O)O)NC(=O)[C@H](N)C(C)C)C(=O)NCc1ccc(NC(=O)Nc2ccccc2C)cc1 [Compound 344] | > 10000
7 | CC(C)CC(NC(=O)CCc1ccccc1)C(=O)NC(CC(=O)O)C(=O)NCC1CCCCC1 (centres unmarked) [Compound 24] | > 10000
8 | Cc1ccccc1NC(=O)Nc1ccc(CC(=O)N[C@@H](CCC(=O)O)C(=O)N[C@@H](CC(=O)O)C(=O)N[C@H](CCC(=O)O)C(N)=O)cc1 [Compound 271] | < 50
9 | CSCC[C@H](NC(=O)[C@@H](NC(=O)[C@H](CC(=O)O)NC(=O)[C@H](CC(C)C)NC(=O)c1ccc2ccccc2n1)C(C)C)C(=O)O [Compound 186] (Quinaldoyl-LDVM-OH) | > 10000
10 | Cc1ccccc1NC(=O)Nc1ccc(CC(=O)N2CCC[C@H]2C(=O)N[C@@H](CCC(=O)O)C(=O)O)cc1 [Compound 416] | 50 to 10000
11 | Cc1ccccc1NC(=O)Nc1ccc(CC(=O)N[C@@H](CC(C)C)C(=O)N[C@@H](CC(=O)O)C(=O)N[C@@H](Cc2c[nH]c3ccccc23)C(N)=O)cc1 [Compound 239] | < 50
12 | CC(C)C(NC(=O)C(CC(=O)O)NC(=O)C(NC(=O)c1cc2ccccc2cn1)C1CCCCC1)C(=O)O (centres unmarked) [Compound 83] | > 10000
13 | Cc1ccccc1NC(=O)Nc1ccc(CC(=O)N2CCC[C@H]2C(=O)N[C@@H](CC(=O)O)C(=O)N[C@@H](Cc2c[nH]c3ccccc23)C(N)=O)cc1 [Compound 250] | < 50
14 | Cc1ccccc1NC(=O)Nc1ccc(CC(=O)N2CCC[C@H]2C(=O)N[C@@H](CC(=O)O)C(=O)N[C@H](CC(C)C)C(=O)O)cc1 [Compound 411] | < 50
15 | CSCC[C@H](NC(=O)Cc1ccc(NC(=O)Nc2ccccc2C)cc1)C(=O)N[C@@H](CC(=O)O)C(=O)N[C@H](C(N)=O)C(C)C [Compound 221] | < 50
16 | Cc1ccccc1NC(=O)Nc1ccc(CC(=O)N[C@H](C(=O)N[C@@H](CC(=O)O)C(=O)N[C@@H](CCC(=O)O)C(N)=O)[C@@H](C)O)cc1 [Compound 256] | < 50
17 | Cc1ccccc1NC(=O)Nc1ccc(CC(=O)N[C@H](CC(C)C)C(=O)N[C@@H](CC(=O)O)C(=O)N[C@@H](CC(=O)O)C(N)=O)cc1 [Compound 286] | < 50
18 | CCC(C)C(NC(=O)C(CC(=O)O)NC(=O)C(CC(C)C)NC(=O)C1CCc2ccccc2N1)C(=O)NC (centres unmarked) [Compound 58] | 50 to 10000
19 | Cc1ccccc1NC(=O)Nc1ccc(CC(=O)N[C@H](CC(C)C)C(=O)N[C@@H](CC(=O)O)C(=O)N[C@H](C(N)=O)C(C)C)cc1 [Compound 288] | < 50
20 | CC(C)C[C@H](NC(=O)c1ccc(-c2ccccn2)s1)C(=O)N[C@@H](CC(=O)O)C(=O)N[C@H](C(=O)O)C(C)C [Compound 407] | > 10000
21 | CC(C)C[C@H](NC(=O)c1ccc(C(C)C)cc1)C(=O)N[C@@H](CC(=O)O)C(=O)N[C@H](C(=O)O)C(C)C [Compound 405] | > 10000

Row | SMILES | IC50 [nM]
22 | CC(=O)N[C@@H](Cc1ccccc1)C(=O)N[C@@H](CC(C)C)C(=O)N[C@@H](CC(=O)O)C(=O)N[C@H](C(=O)O)C(C)C [Compound 152] (Ac-FLDV-OH) | > 10000
23 | Cc1ccccc1NC(=O)Nc1ccc(CC(=O)N[C@@H](CCC(=O)O)C(=O)N[C@@H](CC(=O)O)C(=O)N[C@H](C(N)=O)C(C)C)cc1 [Compound 265] | < 50
24 | Cc1ccccc1NC(=O)Nc1ccc(CC(=O)N[C@@H](CCC(N)=O)C(=O)N[C@@H](CC(=O)O)C(=O)N[C@@H](CC(=O)O)C(N)=O)cc1 [Compound 297] | < 50
25 | CCC(C)C(NC(=O)C(CC(=O)O)NC(=O)C(CC(C)C)NC(=O)Cc1ccccc1)C(N)=O (stereo not drawn) [Compound 53] (PhAc-Leu-Asp-Ile-NH2; configuration not given here) | > 10000
26 | Cc1ccccc1NC(=O)Nc1ccc(CC(=O)N[C@@H](CC(C)C)C(=O)N[C@@H](CCC(=O)O)C(=O)N[C@@H](CC(=O)O)C(N)=O)cc1 [Compound 310] | < 50
27 | COC(=O)C(CCSC)NC(=O)C(NC(=O)C(CC(=O)O)NC(=O)C(CC(C)C)NC(=O)OC(C)(C)C)C(C)C (centres unmarked) [Compound 167] (Boc-LDVM-OMe; configuration not given here) | > 10000
28 | Cc1ccccc1NC(=O)Nc1ccc(CC(=O)N[C@H](CC(C)C)C(=O)N[C@@H](CC(=O)O)C(=O)N[C@H](CC(C)C)C(N)=O)cc1 [Compound 289] | < 50
29 | Cc1ccccc1NC(=O)Nc1ccc(CC(=O)N[C@@H](CCC(=O)O)C(=O)N[C@@H](CC(=O)O)C(=O)N[C@@H](CC(C)C)C(N)=O)cc1 [Compound 264] | < 50
30 | CC(C)CC(NC(=O)c1cc2ccccc2cn1)C(=O)NC(CC(=O)O)C(=O)NCC1CCCCC1 (centres unmarked) [Compound 11] | > 10000
31 | Cc1ccccc1NC(=O)Nc1ccc(CC(=O)N[C@H](C(=O)N[C@@H](CC(=O)O)C(=O)N[C@H](CC(N)=O)C(N)=O)[C@@H](C)O)cc1 [Compound 259] | < 50
32 | COc1cccc(CC(=O)N[C@@H](CC(C)C)C(=O)N[C@@H](CC(=O)O)C(=O)N[C@H](C(=O)O)C(C)C)c1 [Compound 367] | > 10000
33 | Cc1ccccc1NC(=O)Nc1ccc(CC(=O)N[C@@H](CO)C(=O)N[C@@H](CC(=O)O)C(=O)N[C@@H](Cc2c[nH]c3ccccc23)C(N)=O)cc1 [Compound 284] | < 50
34 | Cc1ccccc1NC(=O)Nc1ccc(CC(=O)N[C@@H](CO)C(=O)N[C@@H](CC(=O)O)C(=O)N[C@@H](CCC(=O)O)C(N)=O)cc1 [Compound 279] | < 50
35 | CC(C)C[C@H](NC(=O)c1cc2ccccc2cn1)C(=O)NC(CC(=O)NO)C(=O)N[C@H](C(=O)O)C(C)C (some centres unmarked) [Compound 6] | > 10000
36 | Cc1ccccc1NC(=O)Nc1ccc(CC(=O)N2CCC[C@H]2C(=O)N[C@@H](CCC(=O)O)C(=O)N[C@H](CC(C)C)C(=O)O)cc1 [Compound 415] | 50 to 10000
37 | Cc1ccccc1NC(=O)Nc1ccc(CC(=O)N[C@@H](CCC(N)=O)C(=O)N[C@@H](CC(=O)O)C(=O)N[C@H](C(N)=O)C(C)C)cc1 [Compound 299] | < 50
38 | CCCc1ccc(C(=O)N[C@@H](CC(C)C)C(=O)N[C@@H](CC(=O)O)C(=O)N[C@H](C(=O)O)C(C)C)cc1 [Compound 374] | > 10000
39 | CC(C)CC(NC(=O)CCc1ccc(O)cc1)C(=O)NC(CC(=O)O)C(=O)NC(C(=O)N1CCCC1C(=O)O)C(C)C (centres unmarked) [Compound 38] | > 10000
40 | CNC(=O)[C@@H](CC(C)C)NC(=O)[C@H](CC(=O)O)NC(=O)[C@@H]1CCCN1C(=O)Cc1ccc(NC(=O)Nc2ccccc2C)cc1 [Compound 409] | 50 to 10000
41 | Cc1ccccc1NC(=O)Nc1ccc(CC(=O)N[C@@H](CC(C)C)C(=O)N2CCC[C@H]2C(=O)N[C@H](C(=O)N[C@@H](CC(=O)O)C(=O)O)C(C)C)cc1 [Compound 341] ({NH(2-Me-phenyl)-CO}-[X1]LPVD-OH) | > 10000
